For data set [1] the following is noted: in vivo. The source says:
• 1. acute toxicity test: including tests of administrating medicine by oral, Intravenous injection and maximum limit amount for administration; • 2. Ames test; • 3. micronucleus test of bone marrow cell of mouse; • 4. abnormal sexual test for the sperm of mouse; • 5. abnormal aberrance test for the chromosin of mouse's testis; • 6. chronic lethal test; • 7. subchronic toxicity (feed for 90 days) test; • 8. traditional aberrance-inducing test;

For data set [2], the system named is Proteus Mirabilis. Description: Promoting wave test (bio-wave model). The class given is cell-based. The note with it: final concentration of 0.5% on LB plate, 37° C. The source says:
I. Promoting Wave Test of the Compound of Formula (I) 1.

For the compound `CC(=O)N[C@@H]1[C@@H](O)[C@H](O)[C@@H](CO)O[C@H]1O` [compound of formula (I), N-acetyl-D-glucosamine], in data set [1], the “acute test dosage relative to the injection dosage for human being” value is given as 300 times and the “dosage at which acute toxicosis reaction had not appeared” value is “more than 2 g/kg”. For the same compound, in data set [2], the “promoting wave function (concentric ring pattern compared with control)” value is “there were also many fine waves on each ring emerged”.
